According to US4849345A, “L-phenylalanine dehydrogenase and use thereof” (priority 1985, dated 1989):

Experiments:
[1] = target: T1, L-phenylalanine dehydrogenase produced by Sporosarcina ureae SCRC-R04 (Sporosarcina ureae, UniProt P97014); experiment: Substrate and coenzyme specificity, oxidative deamination (Sporosarcina enzyme); assay type: biochemical; details: coenzyme
T1 sequence (P97014 1-379): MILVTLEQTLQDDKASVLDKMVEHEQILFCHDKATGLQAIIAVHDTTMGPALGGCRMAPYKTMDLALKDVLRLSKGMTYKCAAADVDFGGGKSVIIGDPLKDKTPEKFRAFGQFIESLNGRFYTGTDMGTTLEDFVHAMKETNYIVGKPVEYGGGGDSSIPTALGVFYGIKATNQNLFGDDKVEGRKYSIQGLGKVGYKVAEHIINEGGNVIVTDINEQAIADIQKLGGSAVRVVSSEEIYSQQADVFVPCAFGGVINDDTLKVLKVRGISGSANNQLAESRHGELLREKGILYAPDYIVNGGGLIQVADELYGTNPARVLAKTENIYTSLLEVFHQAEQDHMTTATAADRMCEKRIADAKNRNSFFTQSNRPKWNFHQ
Experimental: The substrate concentration is 10 mM, except for the L-tyrosine concentration which is 1.4 mM.

[2] = target: T2, L-phenylalanine dehydrogenase produced by Bacillus sp. SCRC-R79a (Lysinibacillus sphaericus, UniProt P23307); experiment: Substrate and coenzyme specificity, oxidative deamination (Bacillus enzyme); assay type: biochemical; design: inoculated with Bacillus sp; endogenous in cells; host or cells: Bacillus sp; enzyme purified in house; details: coenzyme
T2 sequence (P23307 1-381): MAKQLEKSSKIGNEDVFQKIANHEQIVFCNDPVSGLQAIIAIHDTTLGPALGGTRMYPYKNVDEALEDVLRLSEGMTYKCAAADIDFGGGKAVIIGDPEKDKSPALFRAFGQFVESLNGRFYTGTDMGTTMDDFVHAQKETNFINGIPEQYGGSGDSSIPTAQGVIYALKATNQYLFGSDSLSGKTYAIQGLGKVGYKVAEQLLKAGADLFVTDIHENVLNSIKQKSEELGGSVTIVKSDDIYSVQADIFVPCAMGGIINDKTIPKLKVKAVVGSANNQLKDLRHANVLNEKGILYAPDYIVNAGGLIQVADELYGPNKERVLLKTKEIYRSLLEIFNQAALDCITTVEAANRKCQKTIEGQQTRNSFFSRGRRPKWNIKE
Experimental: The substrate concentration is 10 mM except for the L-tyrosine concentration which is 1.4 mM.

[3] = target: T2, L-phenylalanine dehydrogenase produced by Bacillus sp. SCRC-R79a; details: pH 9.0; phenylpyruvate to L-phenylalanine as 100%

Question: For `NC(=O)c1ccc[n+]([C@@H]2O[C@H](COP(=O)([O-])OP(=O)(O)OC[C@H]3O[C@@H](n4cnc5c(N)ncnc54)[C@H](OP(=O)(O)O)[C@@H]3O)[C@@H](O)[C@H]2O)c1` [NADP^+], which “activity relative to NAD^+ as coenzyme” value [1] is on record?
Answer: about 3.9%

Question: What about the “activity relative to NAD^+ as coenzyme” value [2] of the same compound?
Answer: ~2.9%

Question: How did the “relative rate of converting the α-keto acid to the L-amino acid” value [3] turn out when `O=C(O)C(=O)Cc1ccccc1` [phenylpyruvate] was run?
Answer: 100%
